Experimental findings from PMC9369311, “Examination of Intracellular GPCR-Mediated Signaling with High Temporal Resolution” (International Journal of Molecular Sciences, 2022) are described below.

Values joined by “and” are separate entries in the source; they are usually repeats but may differ in a detail not shown here. Identical values can stand only once. “Also recorded” adds a separate entry of the source. Where only a bound is given, the exact number is not on record here.

One assay deals with T1, CNGA2 channel (Bos taurus, UniProt Q03041, T537M).
T1 construct: host or cells: HEK293 flpIn cells (Invitrogen #750-07)
T1 sequence (Q03041 1-663 T537M): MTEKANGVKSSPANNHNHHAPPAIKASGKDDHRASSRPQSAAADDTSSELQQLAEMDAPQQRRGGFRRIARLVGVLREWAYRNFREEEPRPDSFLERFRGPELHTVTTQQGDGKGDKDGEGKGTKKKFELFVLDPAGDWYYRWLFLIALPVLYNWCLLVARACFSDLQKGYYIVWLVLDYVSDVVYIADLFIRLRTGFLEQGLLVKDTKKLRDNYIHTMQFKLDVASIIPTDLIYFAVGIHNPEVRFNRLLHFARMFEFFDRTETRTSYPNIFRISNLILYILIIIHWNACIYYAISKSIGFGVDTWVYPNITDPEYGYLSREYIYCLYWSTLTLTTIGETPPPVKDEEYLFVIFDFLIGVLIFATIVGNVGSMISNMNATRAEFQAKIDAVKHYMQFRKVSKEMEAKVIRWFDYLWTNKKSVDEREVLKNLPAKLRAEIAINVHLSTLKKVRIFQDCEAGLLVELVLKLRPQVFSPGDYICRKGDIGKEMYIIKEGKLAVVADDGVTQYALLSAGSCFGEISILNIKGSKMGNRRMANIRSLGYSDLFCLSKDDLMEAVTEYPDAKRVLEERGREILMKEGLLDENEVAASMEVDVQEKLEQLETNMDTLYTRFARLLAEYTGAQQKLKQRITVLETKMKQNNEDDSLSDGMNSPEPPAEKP
The assay is described as follows: Stopped-flow flash photolysis of caged cAMP in Fluo-4-loaded flpTM-DmOctβ1 cells. It counts as cell-based, bovine. The following applies: for cAMP released by photolysis: based on quantum yield. From the text: Neutral density filters that regulate the transmission of light (5%, 25%, 50%, 80%, 100%) were installed, allowing application of different light intensities.
As an integral component of the flpTM-DmOctβ1 cell line, the cAMP-sensitive CNG channel (flpTM; see [32]) enables the detection of cellular cAMP dynamics via mediating cAMP-dependent opening of the channel pore and resulting in Ca^2+ influx. […] A (7-diethylaminocoumarin-4-yl)methyl (DEACM)-modified cAMP was used. The FlpTM-DmOctβ1 cells were loaded with Fluo-4 and DEACM-cAMP. For the stopped-flow measurements, the cells were mixed with ES in the cuvette and after 2 s, a UV-flash was triggered for 10 ms to release cAMP. The fluorescence signals were monitored for 12 s. The time point when triggering the light flash was defined as t = 0. Different concentrations of DEACM-cAMP were used (10 µM, 30 µM, 50 µM, and 100 µM) for loading cells. […] In successive experiments, different light intensities were applied (5%, 25%, 50%, 80%, 100%). The experiments were performed in the presence of 100 µM IBMX to avoid fluctuations in cAMP due to cell-endogenous phosphodiesterases.
For the photolysis of the caged compounds with ultraviolet (UV)-light, a Xe-flash lamp (JML-C2; Rapp Opto Electronics, Wedel, Germany) was coupled to the cuvette via an UV-light permeable light guide (Schott). A UV-2 interference filter was placed between the Xe-flash lamp and light guide to select for the UV-light needed for the photolysis of the caged compounds. Additionally, it prevents the photomultiplier from being hit by light that is able to pass the emission filter. The maximal energy of one light flash at the surface of the cuvette was 107 mJ·cm^−2 (set to C2 and 200 V). Neutral density (ND) filters (AHF Analysentechnik, Tübingen, Germany) could be installed between the interference filter and the Xe-flash lamp to regulate the intensity of the UV-light applied to the cuvette. To maximize the detection of the emission light, a test solution containing 50 nM of fluorescein in ES was added to the cuvette and the light guide was fixed to the Xe/Hg-lamp at a position where the photomultiplier detected maximal intensity.

Assay [1] relates to cell endogenous adenylyl cyclases. In words: Ca2+ fluorimetry in plate reader (96 MWP), flpTM-DmOctβ1 cells stimulated with NKH477. It counts as cell-based, human. The following applies: for logEC50 ± SD: given as logEC50 (negative). The method, then:
In another series of experiments, DmOctβ1 receptor-expressing cell lines were incubated with NKH477, a water soluble agonist of membrane bound adenylyl cyclases, the downstream effectors in DmOctβ1 signaling. Before stimulating the adenylyl cyclase activity, NKH477 has to cross the cell membrane and then binds to the catalytic domain of the enzyme. As before, the flpTM-DmOctβ1 cells were seeded in 96 MWPs and loaded with Fluo-4. In parallel, cells stably co-transfected with GCaMP3.0 were examined (flpTM-DmOctβ1-GCaMP3.0). All of the measurements were performed in the presence of 100 µM IBMX. […] In comparison to the octopamine-evoked responses, the EC50 values for NKH477 differed strongly, with values in the nanomolar range for octopamine and in the micromolar range for NKH477, but confirming the previous data on the octopamine receptors and adenylyl cyclases, respectively. […] Whether this effect was due to differences in the cytosolic distribution of both Ca^2+ detectors and/or the spatial presence of adenylyl cyclase isoforms in membrane domains has not been experimentally addressed.
In this study, we made use of previously established stably transfected cell lines. Briefly, human embryonic kidney cells (HEK293; #85120602, ECACC, Porton Down, Salisbury, UK) were transfected with 10 µg of DmOctα1B receptor-encoding construct by a modified calcium phosphate method. The cell line constitutively expressing the DmOctα1B receptors was propagated in MEM+Glutamax medium containing 10% (v/v) fetal calf serum, 1% (v/v) non-essential amino acids, 1% (v/v) antibiotics/antimycotics, and […] Geneticin (all obtained from ThermoFisher Scientific/Gibco; Dreieich, Germany). A related human embryonic kidney 293-based cell line (HEK293; flpIn cells; Invitrogen/ThermoFisher Scientific; #750-07) that was transfected with a gene encoding a variant of the A2-subunit of the olfactory cyclic nucleotide-gated ion channel (CNG; [31]; flpTM cells, provided by Sibion Biosciences, Jülich, Germany) was transfected with 10 µg of DmOctβ1 receptor-encoding construct. The cell line constitutively expressing the CNG channels and DmOctβ1 receptors was named flpTM-DmOctβ1 and propagated in DMEM+Glutamax medium containing 10% (v/v) fetal calf serum, 1% (v/v) penicillin/streptomycin, and 100 µg/mL Hygromycin, as well as […] Geneticin (all obtained from ThermoFisher Scientific/Gibco). […]
To monitor the intracellular changes of Ca^2+, the cells stably transfected with the genetically encoded calcium indicator GCaMP3.0 (Tian et al., 2009) or loaded with the calcium-sensitive fluorescent dye Fluo-4-AM (Life Technologies/Thermo Fisher Scientific) were analyzed in the plate reader FLUOstar Omega (BMG Labtech, Ortenberg, Germany). […]

Another assay has as its system adenylyl cyclases. The assay is described as follows: Stopped-flow Ca2+ fluorescence measurements, flpTM-DmOctβ1 cells, NKH477. It counts as cell-based, human. The method, then:
In successive stopped-flow measurements, the flpTM-DmOctβ1 cells loaded with Fluo-4 were stimulated with increasing octopamine (1 nM–3 µM) and NKH477 (100 nM–300 µM) concentrations. The fluorescence intensities were monitored over 80 s and 100 s, respectively (Figure 4A1,B1). The fluorescence intensities increased and finally reached a plateau with increasing concentrations of both of the ligands. However, the saturating ligand concentrations differed strongly between octopamine (≥300 nM) and NKH477 (≥100 µM). By plotting the maximal changes in fluorescence (ΔF/F0) against ligand concentrations, concentration–response curves were generated and EC50 values were calculated (Figure 4C). […] As observed for the DmOctα1B cell lines (see Figure 3D), the signal response times of flpTM-DmOctβ1 cells were faster at higher ligand concentrations (Figure 4A2,B2). In Figure 4D, the time until the signals were detected (for details, see Materials and Methods, Section 4.4) are plotted for the ligand concentrations covering the calculated EC50 value (dynamic range) and for saturating concentrations (saturating range). The signal response times of the flpTM-DmOctβ1 cells for octopamine were in the range of 30 s (dynamic range) and 6 s (saturating range), whereas the signal detection upon NKH477 application was observed after 50 s (dynamic range) and 16 s (saturating range). The signal response times were about three- to five-fold faster at the saturating concentrations in comparison to the octopamine and NKH477 concentrations in the dynamic range.
As described for the Fluo-4-loaded flpTM-DmOctβ1 cells, similar experiments were performed with the flpTM-DmOctβ1-GCaMP3.0 cells (Figure 5). The cells were successively mixed with increasing concentrations of octopamine (30 pM–100 nM) or NKH477 (30 nM–100 µM) and the fluorescence intensities were recorded over 100 s. For both of the ligands, increasing ligand concentrations led to an increase in the fluorescence emission finally reaching a plateau (Figure 5A1,B1).
For the stopped-flow measurements, the SFM-400 system (BioLogic, Münster, Germany) was used. The main component of the stopped-flow setup is the SFM-400 module with four 10 mL syringes, which can be filled by external valves. The syringes are driven by step motors. The reactants can be mixed in three individual mixing chambers (M1–M3). The volume between M1 and M2 is 21 µL, and 31 µL between M2 and M3. The observation chamber is a quartz cuvette (FC-15) with a reaction volume of 31 µL, installed behind M3. To avoid fluctuations of the reaction mixture in the cuvette, which might lead to noisy and inconsistent signals, a hard stop valve located behind the cuvette can be closed after injection of the reactants. The stopped-flow module is controlled via a MPS-60 control unit (BioLogic). Data acquisition and operation of the system were performed with the Bio-Kine 32 v4.74 software (BioLogic).
The reactions in the cuvette were analyzed via the changes in the fluorescence. A 150 W Xe/Hg-lamp (ALX-220; BioLogic) was used as a light source for the excitation. The excitation light was guided via a light guide towards the cuvette. To determine the wavelength of the excitation light, a 482 nm bandpass filter (482/35 nm BrightLine® single-band bandpass filter; Semrock, Rochester, NY, USA) was used. A heat protection filter (3 mm; KG1, Schott; Mainz, Germany) was placed between the Xe/Hg-lamp and the excitation filter. The fluorescence was detected with a photomultiplier (PMS 200, BioLogic) installed rectangularly to the light path of the excitation light. Between the cuvette and the photomultiplier tube a 535 nm bandpass emission filter (XF3007 535AF35; Horiba, Oberursel, Germany) was placed to select for the emission light being detected by the photomultiplier. A voltage of 600 V was applied to the photomultiplier.
The fluorescence measurements were performed either directly with the cells expressing GCaMP3.0 or after loading the cells with Fluo-4-AM. […]

Where [2] appears, read: flpTM-DmOctβ1-GCaMP3.0 cells, 100 µM IBMX.
Setting [3] is: flpTM-DmOctβ1 cells loaded with Fluo-4, 100 µM IBMX.

For the compound `CCN(CC)c1ccc2c(COP3(=O)OC[C@H]4O[C@@H](n5cnc6c(N)ncnc65)[C@H](O)[C@@H]4O3)cc(=O)oc2c1` (stereo partly shown) [DEACM-cAMP], on CNGA2 channel (cells loaded with 10 µM DEACM-cAMP, light intensities of 80% and 100%, 10 ms flash, 100 µM IBMX), the “time from light flash to rise in fluorescence (Ca2+ signal)” value is given as “approximately 60 ms”. Besides, the “onset of Ca2+ signals after light flash” value at CNGA2 channel (cells loaded with 30 µM DEACM-cAMP, 10 ms flash, 100 µM IBMX) is “immediately after the light flash; also recorded: immediately after photolysis”. Besides, the “cAMP released by photolysis” value is given as “approximately 2 µM” at CNGA2 channel (from 10 µM DEACM-cAMP) and around 6 µM at CNGA2 channel (from 30 µM DEACM-cAMP).

`C=C[C@@]1(C)CC(=O)[C@]2(O)[C@@]3(C)[C@@H](O)CCC(C)(C)[C@@H]3[C@H](OC(=O)CCN(C)C)[C@H](OC(C)=O)[C@@]2(C)O1.Cl` [NKH477]: the concentration for a half-maximal effect (EC50) in assay [1] (setting [2]) is 0.1 µM; in assay [1] (setting [3]) it was 4.5 µM; with adenylyl cyclases (stopped-flow, flpTM-DmOctβ1-GCaMP3.0 cells, mean ± SEM), 2.1 µM and 2.12 µM; with adenylyl cyclases (stopped-flow, flpTM-DmOctβ1 cells loaded with Fluo-4, mean ± SEM), 3.9 µM and 3.92 µM. The “logEC50 ± SD” value is given as −6.91 ± 0.03 in assay [1] (setting [2]) and −5.34 ± 0.09 in assay [1] (setting [3]). The Signal Response Time in the assay with adenylyl cyclases (dynamic range (concentrations around EC50), flpTM-DmOctβ1-GCaMP3.0 cells) was 40 s; in the assay with adenylyl cyclases (dynamic range (concentrations around EC50), flpTM-DmOctβ1 cells loaded with Fluo-4), 50 s; in the assay on adenylyl cyclases (saturating concentration, flpTM-DmOctβ1-GCaMP3.0 cells, mean ± SEM) it was 13 s and 12.70 ± 0.52 s; in the assay with adenylyl cyclases (saturating concentration, flpTM-DmOctβ1 cells loaded with Fluo-4, mean ± SEM), 13.35 ± 0.82 s; with adenylyl cyclases (saturating ligand concentration, flpTM-DmOctβ1 cell lines, Fluo-4 and GCaMP3.0), 13 s. This compound also yielded a saturating ligand concentration in the assay on adenylyl cyclases (stopped-flow, flpTM-DmOctβ1 cells loaded with Fluo-4) of at least 100 µM.

One may read the EC50 as the concentration giving half of the maximal effect.
